# Assay results reported in ChEMBL document CHEMBL4665702, “Cacalol Acetate, a Sesquiterpene from Psacalium decompositum, Exerts an Anti-inflammatory Effect through LPS/NF-KB Signaling in Raw 264.7 Macrophages” (2020).
# The source made the active and inactive calls. The calls are words filed in the database; no cut-off is given here.
# What was measured:
# Mus musculus [1] = assay: Anti-inflammatory activity in TPA-induced CD-1 mouse ear edema model assessed as ear weight at 1 mg; type: functional
# Mus musculus [2] = assay: Anti-inflammatory activity in TPA-induced CD-1 mouse ear edema model assessed as inhibition of ear edema at 1 mg relative to control; type: functional
# RAW264.7 [3] = assay: Anti-inflammatory activity in mouse RAW264.7 cells assessed as inhibition of LPS-induced TNF-alpha production at 10 uM preincubated for 1 hr followed by LPS administration measured after 3 hrs by ELISA; type: functional, cell-based; details: time 4.0 hrs
# RAW264.7 [4] = assay: Anti-inflammatory activity in mouse RAW264.7 cells assessed as inhibition of LPS-induced IL-6 production at 10 uM preincubated for 1 hr followed by LPS administration measured after 3 hrs by ELISA; type: functional, cell-based; details: time 4.0 hrs
# RAW264.7 [5] = assay: Anti-inflammatory activity in mouse RAW264.7 cells assessed as inhibition of LPS-induced IL-6 mRNA expression at 10 uM preincubated for 1 hr followed by LPS administration measured after 3 hrs by RT-PCR analysis; type: functional, cell-based; details: time 4.0 hrs
# RAW264.7 [6] = assay: Anti-inflammatory activity in mouse RAW264.7 cells assessed as inhibition of LPS-induced IL-1beta production at 10 uM preincubated for 1 hr followed by LPS administration measured after 3 hrs by ELISA; type: functional, cell-based; details: time 4.0 hrs
# [7] = target: Transcription factor p65 (Mus musculus) (UniProt Q04207); assay: Inhibition of p65 phosphorylation at Ser536 residues in LPS-induced mouse RAW 264.7 cells at 10 uM preincubated for 1 hr followed by LPS administration measured after 25 mins by Western blot analysis relative to control; details: RAW264.7, dose 100.0 µM, time 85.0 min
# Target sequence in this assay (Q04207 whole entry, looked up): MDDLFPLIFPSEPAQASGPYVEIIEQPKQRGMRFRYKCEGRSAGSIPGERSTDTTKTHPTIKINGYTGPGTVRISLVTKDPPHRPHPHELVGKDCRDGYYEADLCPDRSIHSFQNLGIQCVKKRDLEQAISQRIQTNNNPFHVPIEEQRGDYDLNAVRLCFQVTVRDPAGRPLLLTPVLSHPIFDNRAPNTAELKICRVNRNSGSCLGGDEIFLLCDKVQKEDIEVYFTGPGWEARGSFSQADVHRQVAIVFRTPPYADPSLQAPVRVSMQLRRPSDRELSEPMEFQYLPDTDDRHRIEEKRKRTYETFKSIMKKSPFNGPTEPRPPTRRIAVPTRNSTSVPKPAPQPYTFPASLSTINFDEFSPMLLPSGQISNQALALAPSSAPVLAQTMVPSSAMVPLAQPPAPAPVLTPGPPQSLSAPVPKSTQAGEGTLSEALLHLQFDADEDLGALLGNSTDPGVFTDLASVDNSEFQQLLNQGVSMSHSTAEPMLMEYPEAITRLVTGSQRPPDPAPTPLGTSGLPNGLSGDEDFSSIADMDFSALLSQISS
# RAW264.7 [8] = assay: Anti-inflammatory activity in mouse RAW264.7 cells assessed as inhibition of LPS-induced IL-1beta mRNA expression at 10 uM preincubated for 1 hr followed by LPS administration measured after 3 hrs by RT-PCR analysis; type: functional, cell-based; details: time 4.0 hrs
# RAW264.7 [9] = assay: Anti-inflammatory activity in mouse RAW264.7 cells assessed as inhibition of LPS-induced TNF-alpha mRNA expression at 10 uM preincubated for 1 hr followed by LPS administration measured after 3 hrs by RT-PCR analysis; type: functional, cell-based; details: time 4.0 hrs
# [10] = target: T1, Inhibitor of nuclear factor kappa-B kinase subunit beta (Mus musculus) (UniProt O88351); assay: Inhibition of IKK-beta phosphorylation at Ser176/177 residues in LPS-induced mouse RAW 264.7 cells at 10 uM preincubated for 1 hr followed by LPS administration measured after 25 mins by Western blot analysis relative to control; details: RAW264.7, time 85.0 min
# T1 sequence (whole entry): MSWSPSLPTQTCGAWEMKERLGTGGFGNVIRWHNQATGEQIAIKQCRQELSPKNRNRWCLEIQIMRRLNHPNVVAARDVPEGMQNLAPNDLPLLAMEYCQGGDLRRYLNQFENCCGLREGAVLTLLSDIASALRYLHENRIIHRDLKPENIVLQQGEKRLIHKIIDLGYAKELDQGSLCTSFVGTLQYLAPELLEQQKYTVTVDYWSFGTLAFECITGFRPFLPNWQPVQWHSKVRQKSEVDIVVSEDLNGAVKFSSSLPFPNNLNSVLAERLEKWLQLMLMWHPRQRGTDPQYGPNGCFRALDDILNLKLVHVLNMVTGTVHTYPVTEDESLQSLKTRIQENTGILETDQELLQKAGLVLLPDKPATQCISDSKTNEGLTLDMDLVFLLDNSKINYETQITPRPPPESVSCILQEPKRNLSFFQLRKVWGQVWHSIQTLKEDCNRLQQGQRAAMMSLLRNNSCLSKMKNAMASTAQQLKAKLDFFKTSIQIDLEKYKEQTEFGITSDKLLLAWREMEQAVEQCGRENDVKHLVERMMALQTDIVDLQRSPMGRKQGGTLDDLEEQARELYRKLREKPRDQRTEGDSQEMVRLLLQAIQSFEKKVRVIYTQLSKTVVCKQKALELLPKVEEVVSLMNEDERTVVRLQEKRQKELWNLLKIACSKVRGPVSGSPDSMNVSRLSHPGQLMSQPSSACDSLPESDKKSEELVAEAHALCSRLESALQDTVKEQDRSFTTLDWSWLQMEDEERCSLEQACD
# [11] = target: Transcription factor p65 (Mus musculus) (UniProt Q04207); assay: Inhibition of p65 phosphorylation at Ser536 residues in LPS-induced mouse RAW 264.7 cells at 100 uM preincubated for 1 hr followed by LPS administration measured after 25 mins by Western blot analysis relative to control; details: RAW264.7, time 85.0 min
# Target sequence in this assay (Q04207 whole entry): as the sequence (Q04207 whole entry, looked up) above
# RAW264.7 [12] = assay: Anti-inflammatory activity in mouse RAW264.7 cells assessed as inhibition of LPS-induced IL-1beta production at 50 to 100 uM preincubated for 1 hr followed by LPS administration measured after 3 hrs by ELISA; type: functional, cell-based; details: dose microM 50-100, time 4.0 hrs
# RAW264.7 [13] = assay: Inhibition of NFkappaB in mouse RAW 264.7 cells assessed as reduction in LPS-induced transcriptional activation at 50 uM preincubated for 1 hr followed by LPS administration measured after 25 mins by EMSA relative to control; type: cell-based; details: time 85.0 min
# RAW264.7 [14] = assay: Anti-inflammatory activity in mouse RAW264.7 cells assessed as inhibition of LPS-induced TNF-alpha production at 50 to 100 uM preincubated for 1 hr followed by LPS administration measured after 3 hrs by ELISA; type: functional, cell-based; details: dose microM 50-100, time 4.0 hrs
# RAW264.7 [15] = assay: Inhibition of NFkappaB in mouse RAW 264.7 cells assessed as reduction in LPS-induced transcriptional activation at 100 uM preincubated for 1 hr followed by LPS administration measured after 25 mins by EMSA relative to control; type: cell-based; details: time 85.0 min
# RAW264.7 [16] = assay: Anti-inflammatory activity in mouse RAW264.7 cells assessed as inhibition of LPS-induced IL-6 production at 50 to 100 uM preincubated for 1 hr followed by LPS administration measured after 3 hrs by ELISA; type: functional, cell-based; details: dose microM 50-100, time 4.0 hrs
# RAW264.7 [17] = assay: Anti-inflammatory activity in mouse RAW264.7 cells assessed as inhibition of LPS-induced COX2 protein level at 50 to 100 uM preincubated for 90 mins followed by LPS administration measured after 3 hrs by RT-qPCR analysis relative to control; type: functional; details: dose microM 50-100; time 270 min; 4.5 h
# [18] = target: T1, Inhibitor of nuclear factor kappa-B kinase subunit beta (Mus musculus); assay: Inhibition of IKK-beta phosphorylation at Ser176/177 residues in LPS-induced mouse RAW 264.7 cells at 50 to 100 uM preincubated for 1 hr followed by LPS administration measured after 25 mins by Western blot analysis; details: RAW264.7, dose microM 50-100, time 85.0 min
# RAW264.7 [19] = assay: Anti-inflammatory activity in mouse RAW264.7 cells assessed as inhibition of LPS-induced COX2 level at 50 to 100 uM preincubated for 90 mins followed by LPS administration measured after 3 hrs by fluorimetric analysis relative to control; type: functional; details: dose microM 50-100; time 270 min; 4.5 h
# RAW264.7 [20] = assay: Anti-inflammatory activity in mouse RAW264.7 cells assessed as inhibition of LPS-induced COX2 mRNA expression at 50 to 100 uM preincubated for 90 mins followed by LPS administration measured after 3 hrs by RT-qPCR analysis; type: functional, cell-based; details: dose microM 50-100, time 270.0 min
# RAW264.7 [21] = assay: Anti-inflammatory activity in mouse RAW264.7 cells assessed as inhibition of LPS-induced TNF-alpha mRNA expression at 50 to 100 uM preincubated for 1 hr followed by LPS administration measured after 3 hrs by RT-PCR analysis; type: functional, cell-based; details: dose microM 50-100, time 4.0 hrs
# RAW264.7 [22] = assay: Anti-inflammatory activity in mouse RAW264.7 cells assessed as inhibition of LPS-induced IL-1beta mRNA expression at 50 to 100 uM preincubated for 1 hr followed by LPS administration measured after 3 hrs by RT-PCR analysis; type: functional, cell-based; details: dose microM 50-100, time 4.0 hrs
# RAW264.7 [23] = assay: Anti-inflammatory activity in mouse RAW264.7 cells assessed as inhibition of LPS-induced IL-6 mRNA expression at 50 to 100 uM preincubated for 1 hr followed by LPS administration measured after 3 hrs by RT-PCR analysis; type: functional, cell-based; details: dose microM 50-100, time 4.0 hrs
compound,measurement,setting,value
Cc1coc2c(O)c3c(c(C)c12)[C@@H](C)CCC3 [CACALOL],Activity,Mus musculus [1],8.55 mg
same,inhibition (INH),Mus musculus [2],48.5%
CC(C)(C)c1ccc(S(=O)(=O)/C=C/C#N)cc1,inhibition,RAW264.7 [3],Active
same,inhibition,RAW264.7 [4],Active
same,inhibition,RAW264.7 [5],Active
same,inhibition,RAW264.7 [6],Active
same,fold change (FC),[7],0.1
same,inhibition,RAW264.7 [8],Active
same,inhibition,RAW264.7 [9],Active
same,fold change (FC),[10],1.5
CC(=O)Oc1c2c(c(C)c3c(C)coc13)[C@@H](C)CCC2,fold change (FC),[11],0.2
same,inhibition,RAW264.7 [12],Active
same,fold change (FC),RAW264.7 [13],1.7
same,inhibition,RAW264.7 [14],Active
same,fold change (FC),RAW264.7 [15],2.1
same,inhibition,RAW264.7 [16],Active
same,fold change (FC),RAW264.7 [17],2
same,Activity,Mus musculus [1],6.56 mg
same,inhibition,[18],inactive
same,inhibition (INH),Mus musculus [2],70.3%
same,fold change (FC),RAW264.7 [19],2.5
same,inhibition,RAW264.7 [20],Active
same,inhibition,RAW264.7 [21],Active
same,inhibition,RAW264.7 [22],Active
same,inhibition,RAW264.7 [23],Active
COc1ccc2c(c1)c(CC(=O)O)c(C)n2C(=O)c1ccc(Cl)cc1 [INDOMETHACIN],Activity,Mus musculus [1],4.05 mg
same,inhibition (INH),Mus musculus [2],78.6%
